According to paper PMC3454389, “Mining the Sinorhizobium meliloti Transportome to Develop FRET Biosensors for Sugars, Dicarboxylates and Cyclic Polyols” (PLoS ONE, 2012):

Tests used:
SMc04259-CY = SMc04259-CY (Sinorhizobium meliloti, UniProt Q92P64); experiment: FRET biosensor SMc04259-CY, in vitro ligand titration; format: binding
Method: (§1) Ligand-induced FRET ratio changes of purified FRET biosensor were screened using a LS55 luminescence spectrometer (PerkinElmer Instruments). Excitation (ex.) was at (λ/slit width) 433/10 nm (CFP) or 549/10 nm (OFP). Emission (em.) was measured at 475/10 nm (CFP), 527/10 nm (YFP), 573/10 nm (OFP) and 644/10 nm (RFP). To confirm that Aphrodite and mKate2 were properly folded their fluorescence was individually tested by direct excitation at 510/6 nm and 588/10 nm respectively.
(§2) Affinity constants (Kd) of FRET biosensors with specific ligands were established using a monochromator microplate reader (Safire, Tecan, Switzerland; CFP ex.: (λ\bandwidth) 433/12 nm, em.: 475/12 nm; YFP em.: 527/12 nm. OFP ex.: 533/12 nm, em.: 563/12 nm; RFP em.: 615/12 nm). Proteins were diluted to give relative fluorescence units (RFU) in the detection range of 30,000 to 50,000 RFU at a gain of 90 to 100, and then were added to a dilution series (10^−3 to 10^−11 M) of ligand in Tris-HCl (pH 8.5, 50 mM). The change in relative emission intensities at 527/477 nm (YFP/CFP) or 615/563 nm (RFP/OFP) was used to determine Kd by fitting the titration curves to a single-site-binding isotherm: [drawing 1] with: R, ratio; Rapo, ratio without ligand; Rsat, ratio at saturation of ligand; n, number of equal binding sites; [L], ligand concentration. Non-linear regression was used to fit the curves using SigmaPlot 11 (Systat Software Inc.) (Hill equation, 4 Parameters, b = 1). All measurements were done in quadruplicate.

[1] = test system: genes encoding the ABC-transporter (RL2376-9); details: cited from earlier work
RL2376-CY = target: T1, RL2376-CY (Rhizobium leguminosarum, UniProt Q1MGQ3); experiment: FRET biosensor RL2376-CY, in vitro ligand titration; format: binding
T1 sequence (Q1MGQ3 24-320): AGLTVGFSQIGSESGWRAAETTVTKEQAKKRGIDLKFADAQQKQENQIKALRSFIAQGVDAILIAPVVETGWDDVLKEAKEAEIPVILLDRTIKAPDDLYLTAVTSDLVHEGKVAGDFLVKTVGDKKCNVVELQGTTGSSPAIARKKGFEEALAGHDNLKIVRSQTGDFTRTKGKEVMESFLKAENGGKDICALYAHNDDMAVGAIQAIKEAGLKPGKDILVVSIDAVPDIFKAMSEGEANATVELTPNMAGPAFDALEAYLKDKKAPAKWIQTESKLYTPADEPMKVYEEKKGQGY
Method: as §1, §2

SMc02324-CY = SMc02324-CY (Sinorhizobium meliloti, UniProt Q92S11); experiment: FRET biosensor SMc02324-CY, in vitro ligand titration; format: binding; details: for reaction of biosensor with compound (FRET) / Kd: SMc02324-CY; for Kd: pCYS (pLMB291), Tris-HCl pH 8.5
SMc02324-CY, sequence (Q92S11 entry or part of it): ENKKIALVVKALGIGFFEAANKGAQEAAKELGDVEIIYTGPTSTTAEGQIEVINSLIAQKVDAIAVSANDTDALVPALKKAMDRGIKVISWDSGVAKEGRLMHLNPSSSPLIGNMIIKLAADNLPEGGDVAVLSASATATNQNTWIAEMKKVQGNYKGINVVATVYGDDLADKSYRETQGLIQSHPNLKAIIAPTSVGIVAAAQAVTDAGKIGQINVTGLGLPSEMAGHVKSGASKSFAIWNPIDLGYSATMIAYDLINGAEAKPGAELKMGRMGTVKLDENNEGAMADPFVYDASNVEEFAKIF
Method: as §1, §2

SMc02774-CY = SMc02774-CY (Sinorhizobium meliloti, UniProt Q92TD7); experiment: FRET biosensor SMc02774-CY, in vitro ligand titration; format: binding; details: for Kd: pCYS (pLMB292), Tris-HCl pH 8.5
SMc02774-CY, sequence (Q92TD7 entry or part of it): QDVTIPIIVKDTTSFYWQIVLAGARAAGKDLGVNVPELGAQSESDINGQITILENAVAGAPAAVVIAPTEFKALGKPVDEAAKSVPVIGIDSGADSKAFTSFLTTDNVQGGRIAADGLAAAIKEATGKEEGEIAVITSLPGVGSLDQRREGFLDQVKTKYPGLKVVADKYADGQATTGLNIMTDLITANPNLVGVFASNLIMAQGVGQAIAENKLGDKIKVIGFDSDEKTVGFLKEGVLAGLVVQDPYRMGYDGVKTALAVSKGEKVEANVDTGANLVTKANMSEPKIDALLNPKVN
Method: as §1, §2

SMb20036 FBS-RO version = experiment: FBS-RO version of SMb20036 biosensor, FRET ratio change on ligand; format: binding, Sinorhizobium meliloti; details: FBS-RO version (RFP/OFP) of SMb20036
Method: as §1
as §2, with “Non-linear regression was used to fit the curves using SigmaPlot 11 (Systat Software Inc.) (Hill equation, 4 Parameters, b = 1). All measurements were done in quadruplicate.” left out

SMb20036-CY = SMb20036-CY (Sinorhizobium meliloti, UniProt Q92XC3); experiment: biochemical; format: binding; details: for change in FRET ratio on addition of compound: compounds similar in structure to D-quinic acid
SMb20036-CY, sequence (Q92XC3 entry or part of it): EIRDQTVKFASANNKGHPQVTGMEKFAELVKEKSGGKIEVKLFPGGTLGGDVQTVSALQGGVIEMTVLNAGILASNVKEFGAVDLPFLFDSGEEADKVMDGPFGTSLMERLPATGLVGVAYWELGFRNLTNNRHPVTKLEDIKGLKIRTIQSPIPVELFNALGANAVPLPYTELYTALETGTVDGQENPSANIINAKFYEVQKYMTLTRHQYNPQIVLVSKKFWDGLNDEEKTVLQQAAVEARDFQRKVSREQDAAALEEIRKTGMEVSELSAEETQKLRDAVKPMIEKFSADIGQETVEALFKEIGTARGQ
Method: as §1, §2

SMc02324-RO = SMc02324-RO (Sinorhizobium meliloti, UniProt Q92S11); experiment: FRET biosensor SMc02324-RO, in vitro ligand titration; format: binding; details: pROS (pLMB523), Tris-HCl pH 8.5
SMc02324-RO, sequence (Q92S11 entry or part of it): as the sequence (Q92S11 entry or part of it) above
Method: as §1
as §2, with “Non-linear regression was used to fit the curves using SigmaPlot 11 (Systat Software Inc.) (Hill equation, 4 Parameters, b = 1). All measurements were done in quadruplicate.” left out

rcc03024-RO = target: T2, rcc03024-RO (Rhodobacter capsulatus, UniProt P37735); experiment: rcc03024-RO, FRET ratio change on ligand; format: binding
T2 construct: made in house; host or cells: E. coli Rosetta2
T2 sequence (P37735 27-333): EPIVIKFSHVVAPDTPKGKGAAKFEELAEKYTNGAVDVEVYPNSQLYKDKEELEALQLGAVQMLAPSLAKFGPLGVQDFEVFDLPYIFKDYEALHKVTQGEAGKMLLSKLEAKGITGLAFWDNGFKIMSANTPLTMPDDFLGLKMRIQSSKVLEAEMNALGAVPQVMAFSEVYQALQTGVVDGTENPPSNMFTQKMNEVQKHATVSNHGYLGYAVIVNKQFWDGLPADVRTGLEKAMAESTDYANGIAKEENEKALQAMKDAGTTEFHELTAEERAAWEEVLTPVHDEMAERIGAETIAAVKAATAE
Method: as §1
as §2, with “Non-linear regression was used to fit the curves using SigmaPlot 11 (Systat Software Inc.) (Hill equation, 4 Parameters, b = 1). All measurements were done in quadruplicate.” left out

rcc03024-CY (DctP) = target: T3, rcc03024-CY (DctP) (Rhodobacter capsulatus, UniProt P37735); experiment: FRET biosensor rcc03024-CY, in vitro ligand titration; format: binding; details: for Kd: pCYS (pLMB414), Tris-HCl pH 8.5
T3 construct: made in house; host or cells: E. coli Rosetta2
T3 sequence (P37735 27-333): T2 sequence (P37735 27-333)
Source text: Ligand-induced FRET ratio changes of purified FRET biosensor were screened using a LS55 luminescence spectrometer (PerkinElmer Instruments).
Non-linear regression was used to fit the curves using SigmaPlot 11 (Systat Software Inc.) (Hill equation, 4 Parameters, b = 1). All measurements were done in quadruplicate.

SMc04259-RO = experiment: SMc04259-RO, FRET ratio change on ligand; format: binding, Sinorhizobium meliloti
Method: as §1
as §2, with “Non-linear regression was used to fit the curves using SigmaPlot 11 (Systat Software Inc.) (Hill equation, 4 Parameters, b = 1). All measurements were done in quadruplicate.” left out

SMc04259-CY, sequence (Q92P64 entry or part of it): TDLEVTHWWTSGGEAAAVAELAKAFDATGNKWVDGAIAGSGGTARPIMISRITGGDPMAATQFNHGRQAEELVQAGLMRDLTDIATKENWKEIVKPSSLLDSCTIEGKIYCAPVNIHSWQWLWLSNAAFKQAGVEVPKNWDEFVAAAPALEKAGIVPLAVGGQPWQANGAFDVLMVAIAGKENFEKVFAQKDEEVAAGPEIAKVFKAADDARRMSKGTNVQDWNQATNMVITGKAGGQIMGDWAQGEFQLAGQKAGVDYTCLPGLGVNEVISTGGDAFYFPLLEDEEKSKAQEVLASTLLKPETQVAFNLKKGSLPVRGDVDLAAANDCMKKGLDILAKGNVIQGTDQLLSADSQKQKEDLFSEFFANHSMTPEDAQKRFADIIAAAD

SMILES: OC[C@H]1O[C@@H](O[C@@H]2[C@@H](CO)OC(O)(CO)[C@H]2O)[C@H](O)[C@@H](O)[C@H]1O (mixture of isomers) [lactulose]
- change in FRET with compound (SMc04259-CY; SMc04259-CY): no change in FRET

SMILES: OC1OC[C@@H](O)[C@@H](O)[C@@H]1O (stereo partly drawn) [D-arabinose]
- Inducer of gene expression (fold change) ([1]; RL2376, Table 1): D-arabinose (3.6) fold
- induction of genes RL2376-9 (fold) ([1]; microarray, compared with cells grown on glucose): up to 3.6 fold
- change in FRET ratio on addition of compound (RL2376-CY): no change in FRET ratio

SMILES: C[C@H]1OC(O)[C@H](O)[C@@H](O)[C@H]1O (stereo partly drawn) [D-fucose]
- reaction of biosensor with compound (FRET) (SMc02324-CY): did not react
- reaction of biosensor with compound (FRET) (SMc02774-CY; SMc02774-CY): did not react

SMILES: OC[C@@H](O)[C@@H]1OC(O)[C@H](O)[C@H]1O (stereo partly drawn) [D-galactofuranose]
- Kd (RL2376-CY; hypothetical solution of pure D-galactofuranose, furanoses 7.7% of D-galactose in solution, read-out: estimated Kd for D-galactofuranose specifically): 408 ± 131 nM

SMILES: O=C(O)[C@]1(O)C[C@@H](O)[C@@H](O)[C@H](O)C1 [D-quinic acid]
- change in FRET ratio on binding ligand (SMb20036 FBS-RO version): no change in FRET ratio
- difference in the affinity for D-quinic acid compared with that for shikimic acid (SMb20036-CY): > 15,000 fold
- Kd (SMb20036-CY; pCYS (pLMB229), Tris-HCl pH 8.5): 5.9 nM

SMILES: C[C@H](O)[C@@H](O)[C@@H](O)[C@H](O)C=O [L-fucose]
- Kd (SMc02324-RO): 19000 nM
- Kd (SMc02324-CY): 11000 nM
- difference between the affinity of SMc02774-CY for L-fucose compared to its affinity for L-rhamnose (SMc02774-CY): three order-magnitude difference
- Kd (SMc02774-CY; SMc02774-CY): 3.6 nM

SMILES: O=C(O)C[C@H](O)C(=O)O [L-malate]
- change in FRET ratio on binding ligand (rcc03024-RO): no change in FRET ratio
- Kd (rcc03024-CY (DctP)): 70 nM

SMILES: C[C@H](O)[C@H](O)[C@@H](O)[C@@H](O)C=O [L-rhamnose]
- Kd (SMc02324-RO): 6.9 nM
- difference in affinity of SMc02324 for L-rhamnose compared to L-fucose (SMc02324-CY): three order-magnitude difference
- Kd (SMc02324-CY): 7.3 nM
- Kd (SMc02774-CY; SMc02774-CY): 1600 nM

SMILES: CC(=O)N[C@H]1[C@H]([C@H](O)[C@H](O)CO)OC(O)(C(=O)O)C[C@@H]1O (stereo partly drawn) [N-acetyl-5-neuraminic acid]
- change in FRET ratio on addition of compound (SMb20036-CY): no change in FRET ratio

SMILES: O=C(O)c1ccccc1 [benzoic acid]
- change in FRET ratio on addition of compound (SMb20036-CY): no change in FRET ratio

SMILES: O=C[C@H](O)[C@@H](O)[C@H](O[C@@H]1O[C@H](CO)[C@@H](O)[C@H](O)[C@H]1O)[C@H](O)CO [cellobiose]
- change in FRET ratio on binding ligand (SMc04259-RO): no change in FRET ratio
- Kd (SMc04259-CY): 33 nM

SMILES: O=C(O)CC(O)(CC(=O)O)C(=O)O [citrate]
- change in FRET ratio on addition of compound (rcc03024-CY (DctP)): no change in FRET ratio

SMILES: [2H]C(=O)C[C@H](O)[C@H](O)CO [deoxy-D-ribose]
- reaction of biosensor with compound (FRET) (SMc02324-CY): did not react

SMILES: OC[C@@H](O)[C@H](O)[C@H](O)[C@@H](O)CO [dulcitol]
- reaction of biosensor with compound (FRET) (SMc02324-CY): did not react

SMILES: OC[C@@H](O)[C@@H](O)CO [erythritol]
- reaction of biosensor with compound (FRET) (SMc02324-CY): did not react

SMILES: O=C(O)/C=C/C(=O)O [fumarate]
- ΔFRET on saturation (%) (rcc03024-CY (DctP); change in FRET ratio on ligand binding): −2.7±0.2%
- Kd (rcc03024-CY (DctP)): 58 nM
